3 molecules from patent US20100297256A1, “METHODS AND COMPOSITIONS FOR INHIBITING INTEGRINS USING TELLURIUM-CONTAINING COMPOUNDS” (priority 2007, published 2010) can be followed below.

Test [1] concerns HL-60 cells. Nature of the test: AML chemotherapy resistance assay (XTT cell viability), HL-60. It is filed as cell-based, human. Conditions: HL-60. The protocol:
(§1) Cell viability was determined using a cell proliferation kit (Roche), which colors viable cells using the tetrazolium salt XTT.
(§2) 2×10^4 per 200 μl cells were seeded in 96-microwell flat bottom plates. After 24 hours, the tested compound(s) (e.g., AS101, ARA-C, DTNB, anti-VLA-4 antibody) was added, and the cells were incubated overnight with the tested compound(s). The XTT solution was then added and the cells were incubated for 4 hours at 37° C. Cell viability was than evaluated by measuring absorbance at 450 nm using a Microplate Spectrophotometer (Spectra MAX Plus, Molecular Devices).

Test [2] deals with U937 cells. Nature of the test: AML chemotherapy resistance assay (XTT cell viability), U937. Format: cell-based, human. Conditions: for resistance of cells to the agent on fibronectin-coated plates in comparison with VCAM-1- and BSA-coated plates: U937. The protocol:
as §1, §2
The role of VLA protein in fibronectin-induced resistance to chemotherapy was investigated by performing a chemotherapy resistance assay, as described hereinabove, with anti-VLA-4 and anti-VLA-5 antibodies. U937 cells were grown in fibronectin- and BSA-coated plates. Antibodies were added at a concentration of 1 μg/ml.

Test [3] relates to leukemic cells from AML patients. Briefly: Sensitization of leukemic cells from AML patients to chemotherapy. Format: cell-based, human. As for the experimental part: as §2
Bone marrow samples from patients diagnosed, with AML, but not yet treated, were obtained and grown in vitro. The leukemic cells obtained therefrom were tested for levels of VLA-4 and VLA-5 via fluorescence based cytometry, using FITC (fluorescein isothiocyanate)-conjugated anti-VLA-4 and anti-VLA-5 antibodies, using standard procedures. The cells were grown on both fibronectin and BSA, and the effect of AS101 on chemotherapy resistance was measured.

Test [4] concerns Bcl2. Briefly: Western blot analysis of Bcl2. It is filed as cell-based, human. Conditions: ARA-C alone. The source says: The expression of the survival factor Bcl2 was examined via Western blot analysis in U937 cells treated with the chemotherapeutic agent ARA-C.
Test [5] concerns U937 cells. Nature of the test: Fluorescence-based flow cytometry analysis of cell death. The arrangement: species or system human. Conditions: agent alone. The source says: Fluorescence-based flow cytometry was used to measure the effect of tellurium-containing compounds on chemotherapy-induced cell death. Accumulation of cells in the sub-G1 fraction, increased proportion of annexin V-positive and propidium iodide-positive cells and increased caspase activity were each used as indicators of increased cell death, using standard procedures.

The test system of test [6] is leukemic cells. Briefly: Chemotherapy resistance assay with DTNB, leukemic cells. Format: cell-based. The protocol:
as §2
The role of free thiols in VLA-4/fibronectin-induced resistance to chemotherapy was therefore investigated by performing a chemotherapy resistance assay, as described hereinabove, with the membrane-impermeable thiol blocker DTNB (5 mM).

As to `Nc1ccn([C@@H]2O[C@H](CO)[C@@H](O)[C@@H]2O)c(=O)n1` [ARA-C, cytosine arabinoside, reference compound], the “resistance of cells to the agent on fibronectin-coated plates in comparison with VCAM-1- and BSA-coated plates” value in test [1] and in test [2] was “more resistant” throughout. In addition, the “viability of cells exposed to ARA-C” value in test [3] (4 AML patients with low VLA-4 levels, on fibronectin and BSA) is recorded as “decreased effectively”; in test [3] (Patient A, low VLA-4, on fibronectin and BSA), “decreased effectively”. The “resistance of cells to ARA-C” value in test [3] (8 AML patients with high VLA-4 levels, on fibronectin) was “relatively resistant to ARA-C”; in test [3] (Patient B, high VLA-4, on fibronectin) it was “relatively resistant to ARA-C”. For the same molecule, the “expression of Bcl2” value was “reduced expression of Bcl2 considerably” in test [4] (U937 on BSA) and “did not decrease expression of Bcl2” in test [4] (U937 on fibronectin). In addition, the figures for the “percentage of annexin V-positive and propidium iodide-positive cells” value in test [5] (U937 on BSA) and in test [5] (U937 on fibronectin) were “large percentage” and “slight increase”, respectively. The “percentage of cells in the sub-G1 fraction” value in test [5] (U937 on BSA) is “large percentage”; in test [5] (U937 on fibronectin), “slight increase”. The “percentage of cells with high caspase-3 activity” value in test [5] (U937 on fibronectin) is recorded as “little or no effect”.

With `O=C(O)c1cc(SSc2ccc([N+](=O)[O-])c(C(=O)O)c2)ccc1[N+](=O)[O-]` [DTNB, 5,5′-dithiobis-(2-nitrobenzoic acid)], the “sensitization to ARA-C-induced cell death” value in test [6] (5 mM DTNB, fibronectin-coated plates) is recorded as “sensitizes leukemic cells grown in fibronectin-coated plates to ARA-C-induced cell death”; in test [6] (DTNB, BSA-coated plates), “no effect”. For the same molecule, the “effect on viability of cells exposed to ARA-C, alone or in combination” value is reported as “no effect either alone or in combination” in test [2] (U937 on BSA) and “no effect either alone or in combination” in test [3] (low VLA-4 leukemic cells, fibronectin-coated plates).

`COc1cccc2c1C(=O)c1c(O)c3c(c(O)c1C2=O)C[C@@](O)(C(C)=O)C[C@@H]3O[C@H]1C[C@H](N)[C@H](O)[C@H](C)O1` [daunorubicin, reference compound]: the “resistance of cells to the agent on fibronectin-coated plates in comparison with VCAM-1- and BSA-coated plates” value in test [1] and in test [2] was “more resistant” throughout.
